Test results taken from US20170087174A1, “COMBINATION THERAPY REGIMEN FOR TREATMENT OF HCV” (JANSSEN PHARMACEUTICALS, INC., priority 2015, published 2017).
Where two headings read alike, the source gives them in different places.

Experiments:
OATP1B1 = biological target: T1, OATP1B1 (Homo sapiens, UniProt Q9Y6L6); conditions: in vitro; cited from earlier work
T1 sequence (Q9Y6L6 1-691): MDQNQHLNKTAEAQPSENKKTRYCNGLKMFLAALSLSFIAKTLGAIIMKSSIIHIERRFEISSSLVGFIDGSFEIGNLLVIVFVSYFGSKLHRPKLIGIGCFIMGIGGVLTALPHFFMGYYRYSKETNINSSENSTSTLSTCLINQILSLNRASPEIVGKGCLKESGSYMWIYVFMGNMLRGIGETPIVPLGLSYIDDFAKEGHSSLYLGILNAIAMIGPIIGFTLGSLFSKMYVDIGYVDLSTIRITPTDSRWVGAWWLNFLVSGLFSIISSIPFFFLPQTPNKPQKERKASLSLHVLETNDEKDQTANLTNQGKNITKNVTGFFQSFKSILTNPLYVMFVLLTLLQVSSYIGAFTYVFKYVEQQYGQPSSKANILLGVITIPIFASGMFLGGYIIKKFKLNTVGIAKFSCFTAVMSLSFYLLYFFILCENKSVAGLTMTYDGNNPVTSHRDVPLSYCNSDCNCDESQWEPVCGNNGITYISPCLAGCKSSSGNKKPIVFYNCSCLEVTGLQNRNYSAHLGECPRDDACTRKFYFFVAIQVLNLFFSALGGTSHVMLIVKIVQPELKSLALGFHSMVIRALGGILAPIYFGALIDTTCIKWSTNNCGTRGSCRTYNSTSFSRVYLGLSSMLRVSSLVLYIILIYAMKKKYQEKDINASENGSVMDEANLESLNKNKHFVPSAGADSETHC

[1] = Phase-1 drug-drug interaction study in healthy volunteers (Compound (III) 800 mg, SMV 150 mg, Odalasvir 150 mg loading then 50 mg, once daily): plasma PK; type: in vivo, human; conditions: both sexes, human, in vivo; for AUC0-24: read-out: AUC0-24; for Cmax: read-out: Cmax
Text: The following daily doses were employed:

P-gp = P-gp (Homo sapiens, UniProt P08183); conditions: in vitro; cited from earlier work
[2] = system: CYP (cytochrome P450 enzymes); assay: CYP inhibition in vitro
[3] = PK of single agents vs fixed dose combinations (FDC), single oral dose in healthy volunteers; type: in vivo, human; conditions: for Cmax: read-out: Cmax (mean ± SD); for AUC(0-t): read-out: AUClast (mean ± SD); for AUC(0-inf): read-out: AUC∞ (mean ± SD)
Method: SMV (100 mg), ODV (50 mg), and Compound (III) (800 mg) were administered as three different formulations or together as single doses in vivo to healthy volunteers. The arms of the study included: • Arm 1 (Reference Arm): Single oral doses of single agents, one SMV 100-mg capsule, one ODV 50-mg tablet as granule layered solid dispersion with copovidone and poloxamers, and two Compound (III) 400-mg tablets, administered together. • Arm 2: Single oral dose of fixed dose combination (FDC02): SMV 100 mg+ODV 50 mg as a spray dried solid dispersion with HPMC-AS L in a ratio ODV/HPMC-AS L 1/1 w/w+Compound (III) 800 mg • Arm 3: Single oral dose of fixed dose combination (FDC04): SMV 100 mg+ODV 50 mg as a spray dried solid dispersion with HPMC-AS L in a ratio ODV/HPMC-AS L 1/3 w/w+Compound (III) 800 mg • Arm 4: Single oral dose of fixed dose combination (FDC01): SMV 100 mg+ODV 50 mg as a spray dried solid dispersion with copovidone and poloxamers+Compound (III) 800 mg
PK parameters, including Cmax, tmax, AUClast, and AUC∞ were measured for Compound (III), ODV, SMV, and metabolites Compound A-I and Compound A-3 for each Arm of the study. Arms that included fixed dose combinations (FDC) (Arm 2, Arm 3, and Arm 4) were then compared to a single oral dose (Arm 1, the reference Arm). Table 9, Table 10, Table 11, Table 12 and Table 13 display relevant PK parameters and FIG. 9, FIG. 10, FIG. 11, FIG. 12, and FIG. 13 depict the plasma concentration over time of SMV, ODV, Compound A-1, and Compound A-3 for each Arm of the study.

[4] = Group 1, Day 3, Compound (III) alone
[5] = Group 1, Day 13 (Compound (III) + SMV)
[6] = Group 1, Day 23 (Compound (III) + SMV + ODV)
[7] = Group 2, Day 3 (Compound (III) alone)
[8] = Group 2, Day 13 (Compound (III) + SMV)
[9] = Group 2, Day 23 (Compound (III) + SMV + ODV)
[10] = Arm 2 (FDC02) vs reference (Arm 1)
[11] = Arm 3 (FDC04) vs reference (Arm 1)
[12] = Arm 4 (FDC01) vs reference (Arm 1)
[13] = human, in vivo, Arm 1 (reference): single agents together

Sequence of P-gp (P08183 whole entry): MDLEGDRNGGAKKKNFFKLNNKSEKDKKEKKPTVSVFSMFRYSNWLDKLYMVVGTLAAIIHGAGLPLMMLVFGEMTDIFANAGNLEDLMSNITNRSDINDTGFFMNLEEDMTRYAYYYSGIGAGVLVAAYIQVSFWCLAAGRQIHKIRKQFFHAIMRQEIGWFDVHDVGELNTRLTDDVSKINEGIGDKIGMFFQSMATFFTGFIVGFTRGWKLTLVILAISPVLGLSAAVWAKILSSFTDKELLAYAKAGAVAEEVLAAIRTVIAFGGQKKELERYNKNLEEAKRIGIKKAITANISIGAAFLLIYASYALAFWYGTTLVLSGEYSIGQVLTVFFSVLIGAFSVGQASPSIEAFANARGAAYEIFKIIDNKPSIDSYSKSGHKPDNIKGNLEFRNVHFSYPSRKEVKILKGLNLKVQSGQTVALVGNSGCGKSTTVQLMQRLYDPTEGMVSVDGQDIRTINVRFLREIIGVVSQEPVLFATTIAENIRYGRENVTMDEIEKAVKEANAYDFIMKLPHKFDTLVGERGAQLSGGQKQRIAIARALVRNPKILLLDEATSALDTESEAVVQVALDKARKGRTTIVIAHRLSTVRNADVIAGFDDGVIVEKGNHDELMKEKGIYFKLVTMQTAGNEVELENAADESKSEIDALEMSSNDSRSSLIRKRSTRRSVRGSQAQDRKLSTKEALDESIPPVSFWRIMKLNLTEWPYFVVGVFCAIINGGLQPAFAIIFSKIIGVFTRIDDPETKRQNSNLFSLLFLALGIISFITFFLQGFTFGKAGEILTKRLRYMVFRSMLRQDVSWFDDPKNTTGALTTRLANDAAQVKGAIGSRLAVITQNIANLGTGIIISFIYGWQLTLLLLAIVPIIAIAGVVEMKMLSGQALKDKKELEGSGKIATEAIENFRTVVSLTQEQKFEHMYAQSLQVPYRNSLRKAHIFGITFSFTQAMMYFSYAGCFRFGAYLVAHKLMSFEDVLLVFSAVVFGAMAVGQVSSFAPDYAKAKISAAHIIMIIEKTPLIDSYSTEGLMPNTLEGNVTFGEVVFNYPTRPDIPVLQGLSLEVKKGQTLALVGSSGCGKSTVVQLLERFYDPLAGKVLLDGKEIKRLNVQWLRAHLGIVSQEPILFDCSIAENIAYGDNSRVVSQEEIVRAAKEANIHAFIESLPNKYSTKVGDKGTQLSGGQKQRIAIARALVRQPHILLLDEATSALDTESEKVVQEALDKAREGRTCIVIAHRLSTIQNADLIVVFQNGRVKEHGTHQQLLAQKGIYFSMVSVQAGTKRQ

For CC(C)OC(=O)[C@H](C)N[P@](=O)(OC[C@@]1(F)O[C@@H](n2ccc(=O)[nH]c2=O)[C@](C)(O)[C@@H]1O)Oc1ccccc1 [Compound (III), isopropyl ((S)-(((2S,3S,4R,5R)-5-(2,4-dioxo-3,4-dihydropyrimidin-1 (2H)-yl)-2-fluoro-3,4-dihydroxy-4-methyltetrahydrofuran-2-yl)methoxy)(phenoxy)phosphoryl)-L-alaninate], the “OATP1B1 inhibition (in words)” value (OATP1B1) is listed as “no in vitro inhibition”, the AUC0-24 [1, 4] is listed as 292 ng·h/mL and the Cmax [1, 4] is listed as 162 ng/mL. For the same compound, the AUC0-24 [1, 5] was 1000 ng·h/mL, the Cmax [1, 5] was 376 ng/mL and the AUC0-24 [1, 6] was 2090 ng·h/mL. For the same compound, the Cmax [1, 6] was 747 ng/mL, the AUC0-24 [1, 7] was 325 ng·h/mL and the Cmax [1, 7] was 151 ng/mL. The AUC0-24 [1, 8] was 1300 ng·h/mL, the Cmax [1, 8] was 516 ng/mL and the AUC0-24 [1, 9] was 2910 ng·h/mL. The Cmax [1, 9] was 950 ng/mL, the “P-gp inhibition (in words)” value (P-gp) was “no in vitro inhibition” and the IC50 [2] was > 26 µM. The “CYP inhibition potential (in words)” value ([2]; on any CYP) was “limited CYP inhibition potential”, the “t1/2term (mean ± SD)” value ([3]; Arm 1 (reference): single agents together) was 36 ± 6 min and the “Least Square Means Ratio, AUClast” value [3, 10] was 110.22%. The “Least Square Means Ratio, AUC∞” value [3, 10] was 111.86%, the “Least Square Means Ratio, Cmax” value [3, 10] was 109.68% and the “t1/2term (mean ± SD)” value ([3]; Arm 2: FDC02) was 42 ± 12 min. For the same compound, the “tmax (median [range])” value ([3]; Arm 2: FDC02) was 2.00 (0.50-4.00) h, the “Least Square Means Ratio, AUClast” value [3, 11] was 127.06% and the “Least Square Means Ratio, AUC∞” value [3, 11] was 138.97%. For the same compound, the “Least Square Means Ratio, Cmax” value [3, 11] was 122.40%, the “t1/2term (mean ± SD)” value ([3]; Arm 3: FDC04) was 42 ± 6 min and the “tmax (median [range])” value ([3]; Arm 3: FDC04) was 2.00 (1.00-4.00) h. The “Least Square Means Ratio, AUClast” value [3, 12] was 151.72%, the “Least Square Means Ratio, AUC∞” value [3, 12] was 144.80% and the “Least Square Means Ratio, Cmax” value [3, 12] was 145.56%. The “t1/2term (mean ± SD)” value ([3]; Arm 4: FDC01) was 36 ± 6 min, the “tmax (median [range])” value ([3]; Arm 4: FDC01) was 2.00 (1.00-4.00) h and the Cmax ([3]; human, in vivo, Arm 1 (reference): single agents together, SMV 100-mg capsule, ODV 50-mg tablet, two Compound (III) 400-mg tablets) was 484 ± 177 ng/mL. The AUC(0-t) [3, 13] was 1160 ± 497 ng·h/mL, the AUC(0-inf) [3, 13] was 1180 ± 524 ng·h/mL and the Tmax ([3]; human, in vivo, Arm 1 (reference): single agents together, read-out: tmax (median [range])) was 120 min. The Cmax ([3]; human, in vivo, Arm 2: FDC02, SMV 100 mg + ODV 50 mg (ODV/HPMC-AS L 1/1 w/w) + Compound (III) 800 mg) was 544 ± 225 ng/mL, the AUC(0-t) ([3]; human, in vivo, Arm 2: FDC02) was 1260 ± 411 ng·h/mL and the AUC(0-inf) ([3]; human, in vivo, Arm 2: FDC02) was 1300 ± 420 ng·h/mL. It also gave a Cmax ([3]; human, in vivo, Arm 3: FDC04, SMV 100 mg + ODV 50 mg (ODV/HPMC-AS L 1/3 w/w) + Compound (III) 800 mg) of 617 ± 295 ng/mL, an AUC(0-t) ([3]; human, in vivo, Arm 3: FDC04) of 1440 ± 450 ng·h/mL and an AUC(0-inf) ([3]; human, in vivo, Arm 3: FDC04) of 1580 ± 434 ng·h/mL. For the same compound, the Cmax ([3]; human, in vivo, Arm 4: FDC01, SMV 100 mg + ODV 50 mg (copovidone and poloxamers) + Compound (III) 800 mg) was 745 ± 381 ng/mL, the AUC(0-t) ([3]; human, in vivo, Arm 4: FDC01) was 1830 ± 866 ng·h/mL and the AUC(0-inf) ([3]; human, in vivo, Arm 4: FDC01) was 1790 ± 889 ng·h/mL.
